Bounds are passed on as bounds.

Test [1] has as its system smooth muscle cells (canine aorta). The test can be described thus: Serotonin-induced smooth muscle cell proliferation, 3H-thymidine incorporation. It counts as cell-based. The note with it: Canis lupus familiaris, Table 3, read-out: ED50 FOR SMOOTH MUSCLE CELLS, Serotonin. How it is done: (§1) The effect of 1% serum on DNA synthesis by endothelial or smooth muscle cells using ^3 H-thymidine incorporation was measured. For measuring the effectiveness of retinoids in inhibiting endothelial or smooth muscle cell proliferation induced by certain mitogens, i.e., serotonin or β-FGF the indicated concentrations were added to the media instead of 1% serum. Primary cells isolated from canine aorta were used for these studies. Unlike the typical cell lines (e.g. NIH 3T3 cells, etc.) 6-7 weeks are required to isolate and grow these primary cells in sufficient number to perform a single experiment. For the following studies, the primary cells (passages 2-4) were plated on 35×10 mm tissue culture dishes in 10% fetal bovine serum (FBS) and incubated. After 72 hours of growth the medias was replaced with 0.1% FBS for synchronization and incubated for additional 72 hours. Then 1% serum was added and incubated for 20 hours followed by the addition of 1μCi of ^3 H-thymidine. Four hours after the addition of 3H-thymidine the DNA was precipitated and the amount of ^3 H-thymidine incorporated was measured. This value is reported as the serum or serotonin or β-FGF stimulated value for cellular proliferation and is expressed as a percentage of baseline ^3 H-thymidine incorporation.
(§2) To examine the antiproliferative effect of retinoids, they were dissolved in 100% ethanol and then added at the indicated final concentrations. The compounds were added at the time of adding 1% serum or serotonin or β-FGF to stimulate the cells. […] After 20 hours of incubation with retinoids and 1% serum or serotonin or β-FGF, the ^3 H-thymidine incorporation was measured.
(§3) Certain of the retinoids were then tested for mitogen-induced cellular proliferation, utilizing serotonin (5HT) and β-FGF as such mitogens. In this testing, as reported in Table 3, below, the same dosages were evaluated for their effect on mitogen-induced cellular proliferation (The results are reported as ED50 and compared to the ED50 for serum-induced smooth muscle and endothelial cell growth).

The test system is the same in test [2]. The test can be described thus: β-FGF-induced smooth muscle cell proliferation, 3H-thymidine incorporation. The note with it: Canis lupus familiaris, Table 3, read-out: ED50 FOR SMOOTH MUSCLE CELLS, β-FGF. In kind it is cell-based. As to the method: as §1, §2, §3
On the technique in general: Incorporation of labelled thymidine or its analogues reports DNA synthesis.

Test [3] has as its system endothelial cells (canine aorta). The test can be described thus: Serum (1%)-induced endothelial cell proliferation, 3H-thymidine incorporation. It counts as cell-based. The note with it: for order of potency for endothelial cells: from Table 2. As to the method: as §1
(§4) To examine the antiproliferative effect of retinoids, they were dissolved in 100% ethanol and then added at the indicated final concentrations. The compounds were added at the time of adding 1% serum or serotonin or β-FGF to stimulate the cells. (The maximal final concentration of ethanol in culture media was 1% which is non-cytotoxic to endothelial or smooth muscle cells). After 20 hours of incubation with retinoids and 1% serum or serotonin or β-FGF, the ^3 H-thymidine incorporation was measured.
(§5) In this experimental dosages ranging between 0.01 and 100 μM were evaluated for the effect of AGN 191183 on cell growth.
(§6) The other retinoids, disclosed above, were also tested for their effect on smooth muscle and endothelial cell growth at the same dosages as for AGN 191183. Table 2 reports the ED50 for each of these retinoids.

Test [4] shares this test system. The test can be described thus: β-FGF-induced endothelial cell proliferation, 3H-thymidine incorporation. In kind it is cell-based. The note with it: Canis lupus familiaris, Table 3, read-out: ED50 FOR ENDOTHELIAL Cells, β-FGF. How it is done:
as §1, §2, §3

The test system is the same in test [5]. The test can be described thus: Serotonin-induced endothelial cell proliferation, 3H-thymidine incorporation. In kind it is cell-based. The note with it: Canis lupus familiaris, Table 3, read-out: ED50 FOR ENDOTHELIAL Cells, Serotonin. How it is done: as §1, §2, §3
The subject of test [6] is smooth muscle cells (canine aorta). The test can be described thus: Serum (1%)-induced smooth muscle cell proliferation, 3H-thymidine incorporation. It counts as cell-based. The note with it: for IC50: Canis lupus familiaris; for rank order potency on smooth muscle cells: from Table 2. As to the method: as §1, §4, §5, §6
The test system of test [7] is RAR and RXR receptor. The test can be described thus: RAR vs RXR agonist activity (retinoid selectivity). In kind it is biochemical. The note with it: Table 2; RAR selective agonist preferably has RAR vs RXR activity ratio of at least 5.
Text: (Of course, pan agonists show agonist activity at both the RAR and RXR receptor.)
A pan agonist will have activity at both of the RAR and RXR receptor, e.g. similar potency at the RAR and RXR receptor.
The subject of test [8] is smooth muscle cells (canine aorta). The test can be described thus: Serum (1%)-induced smooth muscle cell proliferation, 3H-thymidine incorporation. It counts as cell-based.
Test [9] concerns endothelial cells (canine aorta). The test can be described thus: Serum (1%)-induced endothelial cell proliferation, 3H-thymidine incorporation. In kind it is cell-based. The note with it: Canis lupus familiaris, 1% serum, 100% = 1739 ± 71 cpm/10^6 cells, serum stimulated 1246 ± 91, read-out: % ENDOTHELIAL (cell growth, % of baseline 3H-thymidine incorporation).
Setting [10] is: Canis lupus familiaris, Endothelial cell, serum induced, Table 2, read-out: ED50 FOR ENDOTHELIAL CELL (concentration at which proliferation is inhibited by 50%).
Where [11] appears, read: serum induced, Table 2, read-out: ED50 FOR SMOOTH MUSCLE CELLS (concentration at which proliferation is inhibited by 50%).
Setting [12] is: Canis lupus familiaris, Endothelial cell, read-out: ED50 FOR ENDOTHELIAL CELL (concentration at which proliferation is inhibited by 50%).
Where [13] appears, read: read-out: ED50 FOR SMOOTH MUSCLE CELLS (concentration at which proliferation is inhibited by 50%).

For the compound `CC1=C(/C=C/C(C)=C/C=C/C(C)=C\C(=O)O)C(C)(C)CCC1` [AGN 190013, (2Z,4E,6E,8E)-3,7-dimethyl-9-(2,6,6-trimethyl-1-cyclohexen-1-yl)-2,4,6,8-nonatetraenoic acid], the IC50 in test [1] is 5 µM; in [2] it was greater than 100 µM; in test [3] (Canis lupus familiaris, Endothelial cell, serum induced, Table 3, read-out: ED50 FOR ENDOTHELIAL Cells, Serum), 31.5 µM; in [4], 0.009 µM; in test [5], 0.0092 µM; in [6] (serum induced, Table 3, read-out: ED50 FOR SMOOTH MUSCLE CELLS, Serum), 7.4 µM.

With `CC1=C(/C=C/C#Cc2ccc(C(=O)O)cc2)C(C)(C)CCC1` [AGN 190121, (E)-4-[4-(2,6,6-trimethyl-1-cyclohexen-1-yl)but-2-en-1-ynyl] benzoic acid], the SELECTIVITY result in [7] is recorded as “RAR”. Moreover, the IC50 in test [3] (setting [10]) turned out to be 23 µM; in [6] (setting [11]), 46 µM.

For `CC1(C)CCC(C)(C)c2cc(C#Cc3ccc(C(=O)O)cc3)ccc21` [AGN 190205, 4-[2-(5,6,7,8-tetrahydro-5,5,8,8-tetramethyl-2-naphthalenyl)ethynyl] benzoic acid], the SELECTIVITY entry in test [7] is reported as “RAR”. Moreover, the figures for the IC50 in test [3] (setting [12]) and in test [6] (setting [13]) were 6.8 µM and 8.95 µM, respectively. Moreover, the “order of potency for endothelial cells” value in [3] (serum induced) is on record as “AGN 192013>AGN 190205=AGN 191183”.

For `C/C(=C\c1ccc(C(=O)O)cc1)c1ccc2c(c1)C(C)(C)CCC2(C)C` [AGN 191183, (E)-4-[2-(5,6,7,8-tetrahydro-5,5,8,8-tetramethyl-2-naphthalenyl)-1-propen-1-yl] benzoic acid], in [7], the SELECTIVITY result is recorded as “RAR”. Further, the IC50 in test [3] (setting [12]) worked out at 6.15 µM; in test [6] (setting [13]), 0.03 µM. For the same compound, the “order of potency for endothelial cells” value in test [3] (serum induced) is listed as “AGN 192013>AGN 190205=AGN 191183”. In addition, the “rank order potency on smooth muscle cells” value (shortened to “rank order potency”) in test [6] (serum induced) is recorded as “AGN 191659=191183>AGN 192327>AGN 191985>AGN 192326”. In addition, the “effectiveness for inhibiting the growth of smooth muscle and endothelial cells” value in test [6] (smooth muscle and endothelial cells (also A2), serum induced) is “most effective retinoid for inhibiting the growth of both smooth muscle and endothelial cells”. Besides, in [8] (Canis lupus familiaris, 0.01 μM, 1% serum, 100% = 2108 ± 165 cpm/10^6 cells, serum stimulated 725 ± 170, read-out: % SMOOTH MUSCLE (cell growth, % of baseline 3H-thymidine incorporation)), the activity at 0.01 µM stood at 376 ± 17%. The activity at 0.05 µM in [8] (Canis lupus familiaris, 0.05 μM, 1% serum, 100% = 2108 ± 165 cpm/10^6 cells, serum stimulated 725 ± 170, read-out: % SMOOTH MUSCLE (cell growth, % of baseline 3H-thymidine incorporation)) was 348 ± 95%. Further, the activity at 0.1 µM in test [8] (Canis lupus familiaris, 0.1 μM, 1% serum, 100% = 2108 ± 165 cpm/10^6 cells, serum stimulated 725 ± 170, read-out: % SMOOTH MUSCLE (cell growth, % of baseline 3H-thymidine incorporation)) was determined as 219 ± 22%; in [9] (0.1 μM) it was 959 ± 115%. Moreover, the activity at 0.5 µM in test [8] (Canis lupus familiaris, 0.5 μM, 1% serum, 100% = 2108 ± 165 cpm/10^6 cells, serum stimulated 725 ± 170, read-out: % SMOOTH MUSCLE (cell growth, % of baseline 3H-thymidine incorporation)) is 205 ± 17%; in test [9] (0.5 μM), 840 ± 108%. Also, the activity at 1 µM turned out to be 185 ± 10% in test [8] (Canis lupus familiaris, 1 μM, 1% serum, 100% = 2108 ± 165 cpm/10^6 cells, serum stimulated 725 ± 170, read-out: % SMOOTH MUSCLE (cell growth, % of baseline 3H-thymidine incorporation)) and 815 ± 171% in test [9] (1 μM). The activity at 5 µM in [8] (Canis lupus familiaris, 5 μM, 1% serum, 100% = 2108 ± 165 cpm/10^6 cells, serum stimulated 725 ± 170, read-out: % SMOOTH MUSCLE (cell growth, % of baseline 3H-thymidine incorporation)) is 182 ± 3%; in [9] (5 μM), 686 ± 40%. Also, the activity at 10 µM is 126 ± 18% in test [8] (Canis lupus familiaris, 10 μM, 1% serum, 100% = 2108 ± 165 cpm/10^6 cells, serum stimulated 725 ± 170, read-out: % SMOOTH MUSCLE (cell growth, % of baseline 3H-thymidine incorporation)) and 406 ± 32% in test [9] (10 μM). For the same compound, the activity at 50 µM in test [8] (Canis lupus familiaris, 50 μM, 1% serum, 100% = 2108 ± 165 cpm/10^6 cells, serum stimulated 725 ± 170, read-out: % SMOOTH MUSCLE (cell growth, % of baseline 3H-thymidine incorporation)) is 137 ± 25%; in [9] (50 μM) it was 17 ± 2%. Further, the activity at 100 µM in test [8] (Canis lupus familiaris, 100 μM, 1% serum, 100% = 2108 ± 165 cpm/10^6 cells, serum stimulated 725 ± 170, read-out: % SMOOTH MUSCLE (cell growth, % of baseline 3H-thymidine incorporation)) was determined as 77 ± 28%; in [9] (100 μM), 9.3 ± 2.3%.

In the case of `C/C(=C\c1ccc(C(=O)O)s1)c1cc2c(cc1C)C(C)(C)CCC2(C)C` [AGN 191659, (E)-5-[2-(5,6,7,8-tetrahydro-3,5,5,8,8-pentamethyl-2-naphthalenyl)-1-propen-1-yl] thiophene-2-carboxylic acid], the SELECTIVITY entry in test [7] is “PAN AGONIST”. In addition, the IC50 amounted to 39 µM in test [3] (setting [10]) and 0.038 µM in test [6] (setting [11]). The “rank order potency” value in test [6] (serum induced) is given as “AGN 191659=191183>AGN 192327>AGN 191985>AGN 192326”.

With `C/C(=C\c1cc(C(=O)O)cs1)c1cc2c(cc1C)C(C)(C)CCC2(C)C` [AGN 191701, reference compound], the SELECTIVITY result in test [7] is listed as “RXR”. Also, the IC50 in [3] (serum induced, Table 2, read-out: ED50 FOR ENDOTHELIAL CELL (concentration at which proliferation is inhibited by 50%)) was determined as 28.5 µM; in test [8] (setting [11]), 18 µM.

In the case of `CC(C)(C)c1ccc(C#Cc2ccc(C(=O)O)cc2)cc1OC1CCCCO1` (centres unmarked) [AGN 192326, 4-[2-(3-(2-tetrahydropyranyl)oxy)-(4-(1,1-dimethylethyl)phenyl)ethynyl]benzoic acid], the SELECTIVITY result in [7] is “RAR”. Further, the figures for the IC50 in test [3] (setting [10]) and in [6] (setting [11]) were 16.5 µM and 6.5 µM, respectively. In test [6] (serum induced), the “rank order potency” value is reported as “AGN 191659=191183>AGN 192327>AGN 191985>AGN 192326”.

Consider `CC(C)(C)c1ccc(C#Cc2ccc(C(=O)O)cn2)cc1OC1CCCCO1` (centres unmarked) [AGN 192327, 6-[2-(3-(2-tetrahydropyranyl)oxy)-(4-(1,1-dimethylethyl)phenyl)ethynyl]-3-nicotinic acid], for which the SELECTIVITY entry in test [7] is given as “RAR”. Also, the IC50 in test [3] (setting [10]) was 29 µM; in [6] (setting [11]), 4 µM. Besides, the “rank order potency” value in test [6] (serum induced) is listed as “AGN 191659=191183>AGN 192327>AGN 191985>AGN 192326”.

The values above are taken from patent US5798372A, “Method for preventing onset of restenosis after angioplasty employing a retinoid” (Allergan, priority 1997, dated 1998).
